Tests used:
Assay in all cases: KINOMEscan
Assay type in all cases: binding
Details in all cases: read-out: Remaining enzyme activity
JNK3 = molecular target: T1, JNK3 (Homo sapiens, UniProt P53779)
T1 construct: purchased Ambit (DiscoverX) KINOMEscan; Cerep
Procedure: (§1) The KINOMEscan was carried out by Ambit (San Diego, USA) according to a previously established protocol. The experiment was based on a competition binding assay that quantitatively measures the ability of a compound to compete with an immobilized, active-site directed ligand. The assay is performed by combining three components: DNA-tagged kinase; immobilized ligand; and a test compound. The ability of the test compound to compete with the immobilized ligand is measured via quantitative PCR of the DNA tag.
(§2) For most assays, kinase-tagged T7 phage strains were grown in parallel in 24-well blocks in an Escherichia coli host derived from the BL21 strain. E. coli were grown to log-phase and infected with T7 phage from a frozen stock and incubated with shaking at 32 °C until lysis (90–150 min). The lysates were centrifuged (6,000g) and filtered (0.2 μm) to remove cell debris. The remaining kinases were produced in HEK-293 cells (Sigma Aldrich, catalogue number: 85120602) and subsequently tagged with DNA for quantitative PCR detection. […] The liganded beads were blocked with excess biotin and washed with blocking buffer (SeaBlock (Pierce), 1% bovine serum albumin, 0.05% Tween 20 and 1 mM dithiothreitol) to remove unbound ligand and to reduce non-specific phage binding. […] SC81458 was prepared as 40x stock in 100% DMSO and directly diluted into the assay to a final concentration of 10 μM. All reactions were performed in polypropylene 384-well plates in a final volume of 0.04 ml. […] The kinase concentration in the eluates was measured by quantitative PCR.

DDR2 = molecular target: T2, DDR2 (Homo sapiens, UniProt Q16832)
T2 construct: purchased Ambit (DiscoverX) KINOMEscan; Cerep
Procedure: as §1, §2

JNK1 = molecular target: T3, JNK1 (Homo sapiens, UniProt P45983)
T3 construct: purchased Ambit (DiscoverX) KINOMEscan; Cerep
Procedure: as §1, §2

PHKG2 = molecular target: T4, PHKG2 (Homo sapiens, UniProt P15735)
T4 construct: purchased Ambit (DiscoverX) KINOMEscan; Cerep
T4 sequence (P15735 whole entry): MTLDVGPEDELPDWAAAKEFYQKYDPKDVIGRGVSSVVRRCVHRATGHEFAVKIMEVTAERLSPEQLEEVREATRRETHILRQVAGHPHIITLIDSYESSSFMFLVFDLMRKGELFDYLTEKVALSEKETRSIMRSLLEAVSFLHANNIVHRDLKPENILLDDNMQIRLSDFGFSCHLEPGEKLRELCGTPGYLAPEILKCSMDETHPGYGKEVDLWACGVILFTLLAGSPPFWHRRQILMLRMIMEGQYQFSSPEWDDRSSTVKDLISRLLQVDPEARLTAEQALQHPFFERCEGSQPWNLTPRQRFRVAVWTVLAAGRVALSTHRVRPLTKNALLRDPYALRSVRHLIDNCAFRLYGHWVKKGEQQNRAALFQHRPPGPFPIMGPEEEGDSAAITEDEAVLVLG
Procedure: as §1, §2

ZAP70 = molecular target: T5, ZAP70 (Homo sapiens, UniProt P43403)
T5 construct: purchased Ambit (DiscoverX) KINOMEscan; Cerep
Procedure: as §1, §2

PIK3CA(E542K) = molecular target: T6, PIK3CA(E542K) (Homo sapiens, UniProt P42336, E542K)
T6 construct: purchased Ambit (DiscoverX) KINOMEscan; Cerep
T6 sequence (P42336 whole entry E542K): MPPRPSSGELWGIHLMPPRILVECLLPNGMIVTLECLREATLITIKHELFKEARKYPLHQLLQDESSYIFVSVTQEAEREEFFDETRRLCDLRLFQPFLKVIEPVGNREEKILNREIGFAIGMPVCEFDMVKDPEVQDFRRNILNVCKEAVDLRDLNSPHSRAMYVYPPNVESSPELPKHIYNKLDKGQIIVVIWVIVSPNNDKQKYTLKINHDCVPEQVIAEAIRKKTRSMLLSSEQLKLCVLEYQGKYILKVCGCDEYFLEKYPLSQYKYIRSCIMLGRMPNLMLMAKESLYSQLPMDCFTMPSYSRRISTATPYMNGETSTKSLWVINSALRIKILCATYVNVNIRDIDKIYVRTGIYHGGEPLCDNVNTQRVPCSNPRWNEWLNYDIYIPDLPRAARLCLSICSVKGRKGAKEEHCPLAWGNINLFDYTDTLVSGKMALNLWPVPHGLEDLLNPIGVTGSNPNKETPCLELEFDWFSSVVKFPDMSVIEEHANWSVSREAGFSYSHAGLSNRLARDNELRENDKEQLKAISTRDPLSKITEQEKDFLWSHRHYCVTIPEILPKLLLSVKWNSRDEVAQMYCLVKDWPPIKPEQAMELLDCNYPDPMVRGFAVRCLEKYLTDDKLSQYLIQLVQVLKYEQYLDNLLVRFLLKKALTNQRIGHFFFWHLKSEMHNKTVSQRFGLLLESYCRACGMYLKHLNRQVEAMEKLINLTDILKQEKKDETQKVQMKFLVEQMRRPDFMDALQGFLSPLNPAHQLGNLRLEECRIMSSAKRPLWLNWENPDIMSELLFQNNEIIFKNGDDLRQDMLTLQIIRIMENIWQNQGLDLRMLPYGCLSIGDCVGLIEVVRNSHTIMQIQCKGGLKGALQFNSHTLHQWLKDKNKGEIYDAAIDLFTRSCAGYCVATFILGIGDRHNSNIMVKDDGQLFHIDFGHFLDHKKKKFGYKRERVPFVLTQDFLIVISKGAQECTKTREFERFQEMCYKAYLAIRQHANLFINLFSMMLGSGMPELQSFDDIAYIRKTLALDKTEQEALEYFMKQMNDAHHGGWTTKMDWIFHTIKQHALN
Procedure: as §1, §2

CDK11 = molecular target: T7, CDK11 (Homo sapiens, UniProt Q9BWU1)
T7 construct: purchased Ambit (DiscoverX) KINOMEscan; Cerep
Procedure: as §1, §2

CAMK2b = molecular target: T8, CAMK2b (Homo sapiens, UniProt Q13554)
T8 construct: purchased Ambit (DiscoverX) KINOMEscan; Cerep
Procedure: as §1, §2

ABL1(F317I) = molecular target: T9, ABL1(F317I) (Homo sapiens, UniProt P00519, F317I)
T9 construct: purchased Ambit (DiscoverX) KINOMEscan; Cerep
Procedure: as §1, §2

EGFR(G719C) = molecular target: T10, EGFR(G719C) (Homo sapiens, UniProt P00533, G719C)
T10 construct: purchased Ambit (DiscoverX) KINOMEscan; Cerep
Procedure: as §1, §2

TLK1 = molecular target: T11, TLK1 (Homo sapiens, UniProt Q9UKI8)
T11 construct: purchased Ambit (DiscoverX) KINOMEscan; Cerep
T11 sequence (Q9UKI8 whole entry): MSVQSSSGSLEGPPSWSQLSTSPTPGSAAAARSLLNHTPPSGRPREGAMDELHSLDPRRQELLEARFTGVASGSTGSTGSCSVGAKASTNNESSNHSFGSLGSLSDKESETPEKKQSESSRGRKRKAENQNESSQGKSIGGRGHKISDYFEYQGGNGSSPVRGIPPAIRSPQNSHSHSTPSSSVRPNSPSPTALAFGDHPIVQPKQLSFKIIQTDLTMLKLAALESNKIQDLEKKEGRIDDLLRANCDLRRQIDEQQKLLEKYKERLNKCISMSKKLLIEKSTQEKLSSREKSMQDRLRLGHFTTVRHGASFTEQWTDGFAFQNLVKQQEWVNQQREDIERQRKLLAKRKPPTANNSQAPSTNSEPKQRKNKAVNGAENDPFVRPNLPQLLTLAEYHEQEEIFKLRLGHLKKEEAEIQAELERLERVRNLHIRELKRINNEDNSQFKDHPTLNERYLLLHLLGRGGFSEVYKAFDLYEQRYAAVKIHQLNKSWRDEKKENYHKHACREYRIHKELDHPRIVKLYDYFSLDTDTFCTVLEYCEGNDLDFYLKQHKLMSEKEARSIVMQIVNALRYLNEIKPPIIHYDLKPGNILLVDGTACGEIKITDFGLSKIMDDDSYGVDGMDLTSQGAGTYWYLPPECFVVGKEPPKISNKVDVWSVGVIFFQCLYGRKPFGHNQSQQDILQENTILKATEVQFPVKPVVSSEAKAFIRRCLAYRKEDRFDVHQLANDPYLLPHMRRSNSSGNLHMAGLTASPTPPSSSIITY
Procedure: as §1, §2

ABL1(E255K) = molecular target: T12, ABL1(E255K) (Homo sapiens, UniProt P00519, E255K)
T12 construct: purchased Ambit (DiscoverX) KINOMEscan; Cerep
Procedure: as §1, §2

ARK5 = molecular target: T13, ARK5 (Homo sapiens, UniProt O60285)
T13 construct: purchased Ambit (DiscoverX) KINOMEscan; Cerep
Procedure: as §1, §2

EPHA7 = molecular target: T14, EPHA7 (Homo sapiens, UniProt Q15375)
T14 construct: purchased Ambit (DiscoverX) KINOMEscan; Cerep
Procedure: as §1, §2

MST1R = molecular target: T15, MST1R (Homo sapiens, UniProt Q04912)
T15 construct: purchased Ambit (DiscoverX) KINOMEscan; Cerep
Procedure: as §1, §2

PIK3C2g = molecular target: T16, PIK3C2g (Homo sapiens, UniProt O75747)
T16 construct: purchased Ambit (DiscoverX) KINOMEscan; Cerep
Procedure: as §1, §2

MAP3K4 = molecular target: T17, MAP3K4 (Homo sapiens, UniProt Q9Y6R4)
T17 construct: purchased Ambit (DiscoverX) KINOMEscan; Cerep
Procedure: as §1, §2

TIE2 = molecular target: T18, TIE2 (Homo sapiens, UniProt Q02763)
T18 construct: purchased Ambit (DiscoverX) KINOMEscan; Cerep
Procedure: as §1, §2

TBK1 = molecular target: T19, TBK1 (Homo sapiens, UniProt Q9UHD2)
T19 construct: purchased Ambit (DiscoverX) KINOMEscan; Cerep
T19 sequence (Q9UHD2 whole entry): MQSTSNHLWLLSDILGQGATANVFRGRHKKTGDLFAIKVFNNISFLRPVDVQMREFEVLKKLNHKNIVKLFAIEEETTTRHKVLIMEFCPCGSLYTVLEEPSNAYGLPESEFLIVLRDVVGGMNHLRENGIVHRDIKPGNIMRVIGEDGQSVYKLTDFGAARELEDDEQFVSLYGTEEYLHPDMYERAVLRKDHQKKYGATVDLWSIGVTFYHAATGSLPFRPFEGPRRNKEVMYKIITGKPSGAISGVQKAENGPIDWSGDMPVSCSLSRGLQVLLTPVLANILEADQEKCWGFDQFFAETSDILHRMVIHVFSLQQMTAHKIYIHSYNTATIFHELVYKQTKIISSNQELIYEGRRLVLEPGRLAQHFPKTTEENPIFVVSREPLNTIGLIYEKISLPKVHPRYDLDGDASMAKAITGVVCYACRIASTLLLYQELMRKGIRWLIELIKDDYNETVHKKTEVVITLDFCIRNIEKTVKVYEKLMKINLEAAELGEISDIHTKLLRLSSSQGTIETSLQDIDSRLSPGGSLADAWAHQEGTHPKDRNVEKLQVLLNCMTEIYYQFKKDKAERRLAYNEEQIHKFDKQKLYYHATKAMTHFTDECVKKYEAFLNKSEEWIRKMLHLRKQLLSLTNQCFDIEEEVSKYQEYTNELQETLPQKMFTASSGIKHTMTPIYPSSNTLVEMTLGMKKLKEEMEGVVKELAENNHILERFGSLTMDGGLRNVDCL
Procedure: as §1, §2

YSK1 = molecular target: T20, YSK1 (Homo sapiens, UniProt O00506)
T20 construct: purchased Ambit (DiscoverX) KINOMEscan; Cerep
T20 sequence (O00506 whole entry): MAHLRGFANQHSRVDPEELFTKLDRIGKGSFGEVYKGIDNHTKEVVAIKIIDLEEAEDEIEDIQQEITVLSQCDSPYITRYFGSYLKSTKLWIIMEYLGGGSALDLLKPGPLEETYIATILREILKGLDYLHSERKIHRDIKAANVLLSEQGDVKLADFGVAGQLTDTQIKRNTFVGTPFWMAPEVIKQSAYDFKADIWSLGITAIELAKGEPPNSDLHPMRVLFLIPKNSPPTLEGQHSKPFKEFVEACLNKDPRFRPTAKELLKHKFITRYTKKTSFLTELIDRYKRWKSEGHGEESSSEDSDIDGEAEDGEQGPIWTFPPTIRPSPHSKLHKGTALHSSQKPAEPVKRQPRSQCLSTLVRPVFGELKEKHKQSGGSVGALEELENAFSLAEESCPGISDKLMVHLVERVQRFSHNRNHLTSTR
Procedure: as §1, §2

YANK3 = molecular target: T21, YANK3 (Homo sapiens, UniProt Q86UX6)
T21 construct: purchased Ambit (DiscoverX) KINOMEscan; Cerep
Procedure: as §1, §2

[1] = molecular target: T22, RPS6KA1(Kin.Dom.2-C-term) (Homo sapiens, UniProt Q15418)
T22 construct: RPS6KA1(Kin.Dom.2-C-term); purchased Ambit (DiscoverX) KINOMEscan; Cerep
Procedure: as §1, §2

DLK = molecular target: T23, DLK (Homo sapiens, UniProt Q12852)
T23 construct: purchased Ambit (DiscoverX) KINOMEscan; Cerep
Procedure: as §1, §2

CHEK1 = molecular target: T24, CHEK1 (Homo sapiens, UniProt O14757)
T24 construct: purchased Ambit (DiscoverX) KINOMEscan; Cerep
T24 sequence (O14757 whole entry): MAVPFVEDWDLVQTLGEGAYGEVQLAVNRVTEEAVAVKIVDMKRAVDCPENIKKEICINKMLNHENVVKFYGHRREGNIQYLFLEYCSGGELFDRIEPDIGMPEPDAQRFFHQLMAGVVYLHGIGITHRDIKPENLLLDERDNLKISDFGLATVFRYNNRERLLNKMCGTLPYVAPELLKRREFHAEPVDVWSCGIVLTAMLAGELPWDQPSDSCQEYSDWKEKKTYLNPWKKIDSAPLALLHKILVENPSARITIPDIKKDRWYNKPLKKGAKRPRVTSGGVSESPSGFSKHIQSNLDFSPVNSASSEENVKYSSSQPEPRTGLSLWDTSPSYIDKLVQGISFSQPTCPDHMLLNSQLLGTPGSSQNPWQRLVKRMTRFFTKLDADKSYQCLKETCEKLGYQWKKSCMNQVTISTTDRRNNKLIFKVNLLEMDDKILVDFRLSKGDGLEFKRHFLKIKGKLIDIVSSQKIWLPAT
Procedure: as §1, §2

MST2 = molecular target: T25, MST2 (Homo sapiens, UniProt Q13188)
T25 construct: purchased Ambit (DiscoverX) KINOMEscan; Cerep
T25 sequence (Q13188 whole entry): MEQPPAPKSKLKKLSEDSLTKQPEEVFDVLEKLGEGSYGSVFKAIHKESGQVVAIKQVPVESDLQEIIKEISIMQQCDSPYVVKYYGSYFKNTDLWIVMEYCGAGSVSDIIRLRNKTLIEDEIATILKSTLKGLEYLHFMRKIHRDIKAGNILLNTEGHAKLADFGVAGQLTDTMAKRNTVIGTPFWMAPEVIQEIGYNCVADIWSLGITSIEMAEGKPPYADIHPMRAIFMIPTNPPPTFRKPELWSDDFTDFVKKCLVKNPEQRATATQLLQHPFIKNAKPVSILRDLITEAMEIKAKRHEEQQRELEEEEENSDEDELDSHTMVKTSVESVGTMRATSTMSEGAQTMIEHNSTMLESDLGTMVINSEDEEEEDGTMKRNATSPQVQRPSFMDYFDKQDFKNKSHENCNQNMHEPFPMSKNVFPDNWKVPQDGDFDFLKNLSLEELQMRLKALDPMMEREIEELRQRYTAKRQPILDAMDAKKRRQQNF
Procedure: as §1, §2

CDK3 = molecular target: T26, CDK3 (Homo sapiens, UniProt Q00526)
T26 construct: purchased Ambit (DiscoverX) KINOMEscan; Cerep
T26 sequence (Q00526 whole entry): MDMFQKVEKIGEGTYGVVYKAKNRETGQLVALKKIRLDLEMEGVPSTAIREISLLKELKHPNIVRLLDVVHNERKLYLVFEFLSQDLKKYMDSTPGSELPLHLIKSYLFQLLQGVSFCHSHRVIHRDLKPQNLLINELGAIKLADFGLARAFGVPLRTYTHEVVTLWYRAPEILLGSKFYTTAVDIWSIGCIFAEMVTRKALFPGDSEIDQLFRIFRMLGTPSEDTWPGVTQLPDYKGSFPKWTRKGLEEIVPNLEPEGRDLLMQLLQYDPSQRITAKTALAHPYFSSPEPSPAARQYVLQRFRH
Procedure: as §1, §2

MARK1 = molecular target: T27, MARK1 (Homo sapiens, UniProt Q9P0L2)
T27 construct: purchased Ambit (DiscoverX) KINOMEscan; Cerep
Procedure: as §1, §2

[2] = molecular target: T28, JAK1(JH1domain-catalytic) (Homo sapiens, UniProt P23458)
T28 construct: JAK1(JH1domain-catalytic); purchased Ambit (DiscoverX) KINOMEscan; Cerep
T28 sequence (P23458 875-1154 limits assumed): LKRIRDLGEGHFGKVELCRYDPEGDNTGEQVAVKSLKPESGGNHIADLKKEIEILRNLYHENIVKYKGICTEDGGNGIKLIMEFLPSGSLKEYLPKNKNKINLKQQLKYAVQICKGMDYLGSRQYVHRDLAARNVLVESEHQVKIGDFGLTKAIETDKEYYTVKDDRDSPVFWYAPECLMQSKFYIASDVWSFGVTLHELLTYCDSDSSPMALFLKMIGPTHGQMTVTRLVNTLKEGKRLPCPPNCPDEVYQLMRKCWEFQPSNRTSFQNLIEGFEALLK
Procedure: as §1, §2

ABL1(T315I) = molecular target: T29, ABL1(T315I) (Homo sapiens, UniProt P00519, T315I)
T29 construct: purchased Ambit (DiscoverX) KINOMEscan; Cerep
Procedure: as §1, §2

MARK3 = molecular target: T30, MARK3 (Homo sapiens, UniProt P27448)
T30 construct: purchased Ambit (DiscoverX) KINOMEscan; Cerep
Procedure: as §1, §2

[3] = molecular target: T31, RPS6KA4(Kin.Dom.1-N-term) (Homo sapiens, UniProt O75676)
T31 construct: RPS6KA4(Kin.Dom.1-N-term); purchased Ambit (DiscoverX) KINOMEscan; Cerep
Procedure: as §1, §2

MINK = molecular target: T32, MINK (Homo sapiens, UniProt Q8N4C8)
T32 construct: purchased Ambit (DiscoverX) KINOMEscan; Cerep
Procedure: as §1, §2

CCCCN1CCN(C(=N)c2cccc(NC(=O)Nc3ccc(S(=O)(=O)NCc4ccc(S(N)(=O)=O)cc4)cc3)c2)CC1 [SC81458, 4-(3-(3-((4-butylpiperazin-1-yl)(imino)methyl)phenyl)ureido)-N-(4-sulfamoylbenzyl) benzenesulfonamide]
remaining binding at 10 µM (JNK3): 100%
remaining binding at 10 µM (DDR2): 100%
remaining binding at 10 µM (JNK1): 98%
remaining binding at 10 µM (PHKG2): 100%
remaining binding at 10 µM (ZAP70): 89%
remaining binding at 10 µM (PIK3CA(E542K)): 100%
remaining binding at 10 µM (CDK11): 91%
remaining binding at 10 µM (CAMK2b): 100%
remaining binding at 10 µM (ABL1(F317I)): 100%
remaining binding at 10 µM (EGFR(G719C)): 80%
remaining binding at 10 µM (TLK1): 100%
remaining binding at 10 µM (ABL1(E255K)): 100%
remaining binding at 10 µM (ARK5): 92%
remaining binding at 10 µM (EPHA7): 81%
remaining binding at 10 µM (MST1R): 91%
remaining binding at 10 µM (PIK3C2g): 100%
remaining binding at 10 µM (MAP3K4): 100%
remaining binding at 10 µM (TIE2): 100%
remaining binding at 10 µM (TBK1): 100%
remaining binding at 10 µM (YSK1): 76%
remaining binding at 10 µM (YANK3): 97%
remaining binding at 10 µM [1]: 100%
remaining binding at 10 µM (DLK): 100%
remaining binding at 10 µM (CHEK1): 98%
remaining binding at 10 µM (MST2): 100%
remaining binding at 10 µM (CDK3): 100%
remaining binding at 10 µM (MARK1): 100%
remaining binding at 10 µM [2]: 87%
remaining binding at 10 µM (ABL1(T315I)): 100%
remaining binding at 10 µM (MARK3): 99%
remaining binding at 10 µM [3]: 85%
remaining binding at 10 µM (MINK): 95%

— publication PMC5290327, “SC83288 is a clinical development candidate for the treatment of severe malaria” (Nature Communications, 2017)
